Experimental data taken from ChEMBL document CHEMBL3865818, “4,5-Diaryl-3H-1,2-dithiole-3-thiones and related compounds as combretastatin A-4/oltipraz hybrids: Synthesis, molecular modelling and evaluation as antiproliferative agents and inhibitors of tubulin” (Eur J Med Chem, 2016).

Legend:
Assay type in all cases: functional
[1] = Cell cycle arrest in human KB cells assessed as accumulation at SubG1-phase at 0.05 uM measured after 24 hrs by propidium iodide staining-based flow cytometry (reference value: 0.76%)
[2] = Cell cycle arrest in human KB cells assessed as accumulation at S-phase at 0.05 uM measured after 48 hrs by propidium iodide staining-based flow cytometry (reference value: 13.32%)
[3] = Cell cycle arrest in human KB cells assessed as accumulation at G0/G1-phase at 0.1 uM measured after 12 hrs by propidium iodide staining-based flow cytometry (reference value: 48.26%)
[4] = Cell cycle arrest in human KB cells assessed as accumulation at G0/G1-phase at 0.1 uM measured after 24 hrs by propidium iodide staining-based flow cytometry (reference value: 48.52%)
[5] = Cell cycle arrest in human KB cells assessed as accumulation at S-phase at 0.1 uM measured after 24 hrs by propidium iodide staining-based flow cytometry (reference value: 16.96%)
[6] = Cell cycle arrest in human KB cells assessed as accumulation at SubG1-phase at 0.1 uM measured after 60 hrs by propidium iodide staining-based flow cytometry (reference value: 1.24%)
[7] = Cell cycle arrest in human KB cells assessed as accumulation at G0/G1-phase at 0.1 uM measured after 60 hrs by propidium iodide staining-based flow cytometry (reference value: 63.85%)
[8] = Cell cycle arrest in human KB cells assessed as accumulation at S-phase at 0.1 uM measured after 60 hrs by propidium iodide staining-based flow cytometry (reference value: 12.66%)
[9] = Cell cycle arrest in human KB cells assessed as accumulation at G2/M-phase at 0.2 uM measured after 36 hrs by propidium iodide staining-based flow cytometry (reference value: 27.34%)
[10] = Cell cycle arrest in human KB cells assessed as accumulation at SubG1-phase at 0.2 uM measured after 60 hrs by propidium iodide staining-based flow cytometry (reference value: 1.24%)
[11] = Cell cycle arrest in human KB cells assessed as accumulation at S-phase measured after 12 hrs by propidium iodide staining-based flow cytometry (reference value: 15.5%)
[12] = Cell cycle arrest in human KB cells assessed as accumulation at SubG1-phase measured after 48 hrs by propidium iodide staining-based flow cytometry (reference value: 0.61%)
[13] = Cell cycle arrest in human KB cells assessed as accumulation at S-phase measured after 60 hrs by propidium iodide staining-based flow cytometry (reference value: 12.66%)

COc1ccc(-c2ssc(=O)c2-c2cc(OC)c(OC)c(OC)c2)cc1N
Activity [1]: 6.04% | Activity [2]: 10.9% | Activity [3]: 8.66% | Activity [4]: 13.1% | Activity [5]: 25.4% | Activity [6]: 57.8% | Activity [7]: 12.3% | Activity [8]: 9.61% | Activity [9]: 34.7% | Activity [10]: 55.3% | Activity [11]: 21.5% | Activity [12]: 56.1% | Activity [13]: 6.78%
